Literature values, collected in US20230165842A1, “NEW USES” (priority 2020, published 2023).
Read-outs that look alike come from different tables or passages of the source.

Key:
SARS-CoV-2 [1] = details: Vero E6; for IC50: 2 h pre-treatment, 24 h
SARS-CoV-2 [2] = details: virucidal activity; chlorphenamine maleate
SARS-CoV-2 [3] = details: Yang et al., 2020
SARS-CoV-2 [4] = details: pre-treated Vero-E6; MOI 0.01; 24 hours; p<0.001 vs DMSO
SARS-CoV-2 [5] = details: pre-treated A549^AcE2; MOI 0.01; 24 hours; p<0.001 vs DMSO
[6] = system: critically ill patients with COVID-19; details: compared to placebo or usual care
SARS-CoV-2 [7] = details: 10 μM; post-infection treatment; Vero E6; MOI 1
SARS-CoV-2 [8] = details: treated 24 hours prior to infection; read-out: IC50 in Vero
SARS-CoV-2 [9] = details: treated 24 hours prior to infection; read-out: IC50 in Calu-3
[10] = system: human coronavirus (HCoV)-229E; details: MRC5 cells
SARS-CoV-2 [11] = details: Vero E6; with reduced cytotoxicity
[12] = system: SARS-CoV-2 Spike pseudotyped virus; details: ACE2h HEK293T cells; Control = 1
ACE2 = ACE2 (Homo sapiens, UniProt Q9BYF1); details: cell membrane chromatography and surface plasmon resonance
Chain of ACE2 (Q9BYF1 18-805): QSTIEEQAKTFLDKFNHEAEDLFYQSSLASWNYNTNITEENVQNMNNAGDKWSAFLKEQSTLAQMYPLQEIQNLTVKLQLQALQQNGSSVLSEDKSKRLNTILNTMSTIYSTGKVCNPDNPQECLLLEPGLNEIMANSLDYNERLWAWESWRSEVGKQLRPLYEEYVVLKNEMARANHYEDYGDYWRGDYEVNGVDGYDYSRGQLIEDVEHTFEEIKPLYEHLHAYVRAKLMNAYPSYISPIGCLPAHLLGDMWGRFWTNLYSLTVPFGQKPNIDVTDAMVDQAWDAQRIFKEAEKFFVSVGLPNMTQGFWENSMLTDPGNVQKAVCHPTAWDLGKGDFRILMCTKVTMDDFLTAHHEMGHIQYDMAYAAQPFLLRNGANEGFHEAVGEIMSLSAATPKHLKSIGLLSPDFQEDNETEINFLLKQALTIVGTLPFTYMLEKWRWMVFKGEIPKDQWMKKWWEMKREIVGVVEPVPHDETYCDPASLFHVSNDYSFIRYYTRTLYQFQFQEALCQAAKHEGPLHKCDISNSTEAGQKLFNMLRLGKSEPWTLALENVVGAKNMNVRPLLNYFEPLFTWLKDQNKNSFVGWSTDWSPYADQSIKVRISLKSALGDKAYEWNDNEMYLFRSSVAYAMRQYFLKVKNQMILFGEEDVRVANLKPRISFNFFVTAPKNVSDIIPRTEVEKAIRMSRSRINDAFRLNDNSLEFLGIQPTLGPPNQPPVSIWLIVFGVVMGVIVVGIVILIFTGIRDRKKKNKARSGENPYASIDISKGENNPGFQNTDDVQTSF

SARS-CoV-2 [13] = details: Vero-E6
SARS-CoV-2 [14] = details: with increased concentrations; vs DMSO treated group
Vero-E6 cells = details: read-out: CC50 in
SARS-CoV-2-Wuhan-Hu-1 = details: Vero C1008
HCoV-OC43 = details: Vero C1008; dose-dependent
SARS-CoV-2 [15] = details: Calu-3
IL1β = details: curcumin group
IL6 = details: curcumin group
IL-18 and TNF-α = details: before and after intervention

CN(C)CCC(c1ccc(Cl)cc1)c1ccccn1 (stereo not drawn) [Compound 16, chlorphenamine]
Selectivity Index (SI) (SARS-CoV-2 [1]; MOI 0.004): 3.78 | IC50 (SARS-CoV-2 [1]; MOI 0.004): 3.14 µM | Selectivity Index (SI) (SARS-CoV-2 [1]; MOI 0.01): 2.94 | IC50 (SARS-CoV-2 [1]; MOI 0.01): 4.03 µM | reduction in the viral load (SARS-CoV-2 [2]): 99.7% | CC50 (Vero E6 cells): 11.9 µM

CC(CN1c2ccccc2Sc2ccccc21)N(C)C (stereo not drawn) [Compound 144, promethazine]
Selectivity Index (SI) (SARS-CoV-2 [1]; MOI 0.004): 4.62 | IC50 (SARS-CoV-2 [1]; MOI 0.004): 9.21 µM | Selectivity Index (SI) (SARS-CoV-2 [1]; MOI 0.01): 4.08 | IC50 (SARS-CoV-2 [1]; MOI 0.01): 10.4 µM | SARS-CoV-2 entry inhibition (SARS-CoV-2 [3]): SARS-CoV-2 entry inhibitor | CC50 (Vero E6 cells; Vero E6, listed as MOI 0.004): > 42.6 µM | CC50 (Vero E6 cells; Vero E6, listed as MOI 0.01): > 42.6 µM

CN1CCN(CCCN2c3ccccc3Sc3ccc(C(F)(F)F)cc32)CC1 [Compound 73, trifluoperazine]
SARS-COV-2 replication (vRNA levels) (SARS-CoV-2 [4]): successfully blocked | SARS-COV-2 replication (vRNA levels) (SARS-CoV-2 [5]): successfully blocked

C[C@]12CCC(=O)C=C1CC[C@@H]1[C@@H]2[C@@H](O)C[C@@]2(C)[C@H]1CC[C@]2(O)C(=O)CO [Compound 32, hydrocortisone]
odds ratio (OR) of mortality [6]: 0.69 (95% CI, 0.43-1.12; P = .13)

calcitriol [Compound 142]
reduction of SARS-CoV-2 titre (SARS-CoV-2 [7]): 1.3 log 10

CCCCCC(=O)O[C@]1(C(C)=O)CC[C@H]2[C@@H]3CCC4=CC(=O)CC[C@]4(C)[C@H]3CC[C@@]21C [Compound 2, 17-hydroxyprogesterone-caproate]
IC50 (SARS-CoV-2 [8]): 6.3 µM | IC50 (SARS-CoV-2 [9]): 3.87 µM

Oc1ccc(C=Cc2cc(O)cc(O)c2)cc1 [Compound 192, resveratrol]
EC50 [10]: 4.6 µM | reduction of the viral titer [10]: 80% | viral titer on SARS-CoV-2 (SARS-CoV-2 [11]): showed a reduction of the viral titer

CCOC(=O)N1CCC(=C2c3ccc(Cl)cc3CCc3cccnc32)CC1 [Compound 42, loratadine]
pseudotype entry (mean) [12]: 0.7 | binding to ACE2 (ACE2): could bind to ACE2

Nc1ccn([C@@H]2O[C@H](CO)[C@@H](O)C2(F)F)c(=O)n1 [Compound 155, gemcitabine]
SI (SARS-CoV-2 [13]): 33 | EC50 (SARS-CoV-2 [13]; MOI 0.005): 1.24 µM | positive cells in IFA (SARS-CoV-2 [14]): significantly decreased positive cells | CC50 (Vero-E6 cells): > 40 µM

C[S+]([O-])CCCCN=C=S (stereo not drawn) [Compound 139, sulforaphane]
SARS-CoV-2-Wuhan-Hu-1 virus-associated cell death (SARS-CoV-2-Wuhan-Hu-1; dose-dependent): effectively inhibited | IC50 (SARS-CoV-2-Wuhan-Hu-1; drug 1-2 hours before inoculation): 12 µM | cytotoxic dose TD50 (Vero C1008): 73 to 89 µM | HCoV-OC43 virus-associated cell death (HCoV-OC43): effectively inhibited | protein concentration in the bronchoalveolar lavage (BAL) (SARS-CoV-2/USA/WI1/2020; SFN daily oral gavage from one day prior to inoculation, vs untreated infected controls, P<0.0001): significantly lower | reduction in viral titers, alveolar fluid (SARS-CoV-2/USA/WI1/2020; vs untreated controls, P=0.04): 1.15 log | reduction in viral lung titers (SARS-CoV-2/USA/WI1/2020; vs untreated controls, normalized to PoI2Ra): 1.5 log

CCOC(=O)C1=C(C)NC(C)=C(C(=O)OC)C1c1cccc(Cl)c1Cl (stereo not drawn) [Compound 30, felodipine]
SI = CC50/EC50 (SARS-CoV-2 [15]): 9784.86 | CC50 (Calu-3 cells): 123 µM

COc1cc(/C=C/C(=O)CC(=O)/C=C/c2ccc(O)c(OC)c2)ccc1O [Compound 21, curcumin]
IL1β mRNA expression level, after (IL1β; 160 mg daily for 14 days): 0.56 | IL1β mRNA expression level, before (IL1β; before intervention): 1.01 | IL6 mRNA expression level, after (IL6; 160 mg daily for 14 days): 0.58 | IL6 mRNA expression level, before (IL6; before intervention): 0.98 | expression level of IL-18 and TNF-α (IL-18 and TNF-α): no statistically significant differences
